Measurements: patent US12226400B2, “Neuroprotective disruption of Kv2.1/syntaxin interaction by small molecules” (UNIVERSITY OF PITTSBURGH-OF THE COMMONWEALTH SYSTEM OF …, priority 2018, dated 2025)

What was measured:
[1] = test system: NMDA receptors; assay: Fura-2 ratiometric Ca2+ imaging during NMDA exposure; assay type: cell-based, rat; conditions: 10 μM cpd5, NMDA 30 μM with 10 μM glycine; ±SEM
Protocol: Intracellular Ca^2+ measurements were performed on the same cortical culture preparations as above, but with 20 DIV cells plated on MatTek glass-bottom 35 mm culture dishes. At this developmental stage, neurons robustly express both GluN2A and GluN2B subunits of the NMDA receptor. Neurons were incubated with the fluorescent Ca^2+ indicator Fura-2 AM ester (5 μM; Invitrogen) with 0.02% Pluronic F-127 (Invitrogen) for 1 h at 37° C. Culture dishes were then mounted on an inverted microscope stage (Olympus) and continuously perfused with a 10 mM HEPES-buffered normal salt solution. Perfusion rate (5 ml/min) was controlled with a gravity flow and a rapid-switching local perfusion system (Warner Instruments). […] A ratio of fluorescence emission (F) at 510 nm in response to excitations at 340 and 380 nm was acquired at 1 Hz (Fambda DG-4 and 10-B SmartShutter, Sutter Instruments) via camera (ORCAER, Hamamatsu) and saved to a computer using HCImage (Hamamatsu). Baseline Ca^2+ signals were recorded for 2 min before the first application of NMDA (30 μM plus 10 μM glycine) with or without 10 μM cpd5 (Cat #MolPort-009-741-732, Molport). […] Peak increases in intracellular calcium concentration were measured by calculating F/Fo (F, peak fluorescence; Fo, average signal across 2 min baseline period). The area under the response for the first 15 min of NMDA application was also calculated.

[2] = test system: layer 2/3 corticocallosal neuron AMPAR EPSCs; assay: Slice electrophysiology, evoked AMPAR EPSCs in auditory cortex layer 2/3 corticocallosal neurons; assay type: cell-based, mouse
Protocol: Stereotaxic injections for electrophysiology. Male or female ICR mice P21-30 (Jackson Laboratory) were anesthetized with 3% isoflurane (1.5% maintenance) and placed on the stereotaxic frame (Kopf). Core body temperature was maintained at ˜37° C. with a heating pad and eyes were protected with ophthalmic ointment. Lidocaine (1%) was injected under the scalp and an incision was made into the skin at the midline to expose the skull. […] A volume of ˜0.12 μl fluorospheres was pressure injected (25 psi, 10 ms duration) from capillary pipettes (Drummond Scientific) with a Picospritzer (Parker-Hannifin). After injection, the pipette was held in the brain for 2 min before slowly withdrawing. The scalp of the mouse was closed with cyanoacrylate adhesive. […] Mice were monitored for signs of postoperative stress and pain.
Slice electrophysiology. […] Pipette capacitance was compensated and series resistance for recordings was lower than 15 MΩ and measured throughout the experiments. […]
To evoke AMPAR EPSCs, auditory cortex layer 2/3 neurons were stimulated locally with an Isoflex stimulator (AMPI), through a glass theta electrode containing ACSF, by a single 0.15 ms duration electrical pulse every 30 sec. AMPAR EPSCs were recorded in voltage clamp mode at −70 mV (peak values were averaged over a 0.3 ms time window). […]

COc1ccc(CNC(=O)Nc2cccc(-c3nc4ccccc4s3)c2)cc1OC [cpd5, 3-[3-(1,3-benzothiazol-2-yl)phenyl]-1-[(3,4-dimethoxyphenyl)methyl]urea]
NMDA-induced Ca2+ response, AUC treated [1]: 104.67±1.98 % Control | NMDA-induced Ca2+ response, F-peak treated [1]: 101.26±1.47 % Control | AMPAR EPSCs amplitude normalized to control ([2]; 10 μM cpd5, p=0.153): 97.6±0.9% | threshold, amplitude or duration of evoked synaptic potentials ([2]; Cpd5 10 μM, cortical layer 2/3 projection neurons, acute slices): No significant differences
